Source: US20100008983A1 (priority 2008, published 2010)
Counter-ions that a name gives are not always drawn. Like-named read-outs stand apart in the source and are kept apart here.

Details: stirring

C#CCN[C@@H]1CCc2ccccc21 [Rasagiline mesylate, R(+)-N-propargyl-1-aminoindan]
Solubility (Observation: amount soluble, clear solution) (Capmul MCM (glyceryl mono- & dicaprate), RT): 64 mg/g soluble,
Solubility (Observation: amount soluble, clear solution) (Cremophor EL (polyoxyethylene castor oil derivative), RT): 25 mg/g soluble,
Solubility (Observation: amount soluble, clear solution) (Ethanol, RT): 66.6 mg/g soluble,
Solubility (Observation) (Gelucire 44/14 (Lauroyl macrogol-32 glyceride), 45-50° C.): Not soluble
Solubility (Observation) (Labrafil M 1944 CS (polyoxyethylated glycolysed glycerides), 37° C.): Not soluble
Solubility (Observation) (Labrafil M 1944 CS (polyoxyethylated glycolysed glycerides), RT): Not soluble
Solubility (Observation: amount soluble, clear solution) (Labrasol (Caprylocaproyl macrogol-8 glyceride), 37-40° C.): 10 mg/g soluble,
Solubility (Observation) (Miglyol 810 (Caprylic/Capric Triglyceride), 37° C.): Not soluble
Solubility (Observation) (Miglyol 810 (Caprylic/Capric Triglyceride), RT): Not soluble
Solubility (Observation: amount soluble, clear solution) (Polyethylene Glycol 400, RT): 25 mg/g soluble,
Solubility (Observation: amount soluble, clear solution) (Propylene Glycol, RT): 25 mg/g soluble,
Solubility (Observation) (Soybean oil, 37° C.): Not soluble
Solubility (Observation) (Soybean oil, RT): Not soluble
Solubility (Observation: amount soluble, clear solution) (Transcutol (2-(2-ethoxyethoxy)ethanol), RT): 25 mg/g soluble,
Solubility (Observation: amount soluble, clear solution) (Tween 80 (polyoxyethylene sorbitan fatty acid esters), RT): 10 mg/g soluble,
